In US12605358B2, “Composition for preventing or treating nervous system diseases comprising compound that inhibits mTOR signaling pathway as active ingredient” (ALIAD BIOPHARMA, priority 2021, dated 2026):

Tested on: primary cultured hippocampal neurons
Test: LC3-eGFP puncta formation assay (autophagy promotion)
Assay type: cell-based, rat
Details: rapamycin and HN-1703 at 0.1 μM and 0.5 μM respectively, 12 hours; FIG. 3A
Protocol: Primary neurons culture was performed from the hippocampus of rat (SD, Orient Bio) embryonic 16-day (E16) embryos. The left and right hemispheres of the extracted brain were separated using sterile tweezers under a dissecting microscope, the meninges were peeled off, the hippocampus was cut with No. 55 tweezers, and neural progenitor cells were mechanically dissolved in a Ca^2+/Mg^2+-free HBSS (Invitrogen) solution by pipetting with a pasteur pipette (Falcon, 354647). Undissolved tissues or vascular cells were settled, and then a supernatant was taken to measure the cell number and the isolated cells were seeded at 19,000 cells/cm^2 in a 35 mm culture dish coated with poly-L-ornithine (sigma, P3655) and fibronectin (sigma, F4759). The cells were cultured using a serum-free N2 medium (growth medium) added with 10 ng/mL bFGF (Invitrogen) in a 5% CO2 incubator, and the culture medium was replaced after 6 hours and after 24 hours. After 2 days, when the cells proliferated twice or more, subculture was performed.
After 3 days of the primary neural progenitor cell culture, a process of subculturing with 0.05% trypsin was repeated twice, and DNA electroporation or transfection was performed before seeding. […]
The number of cell nuclei labeled with DAPI and the number of cells expressing green fluorescence by overlapping LC3-eGFP expression and DAPI labeling were measured. The number of eGFP-LC3 puncta was measured per cell, and the signal intensity of puncta was measured using a confocal laser microscope program. […]
The autophagy promoting effect of HN-1703 in neurons differentiated by culturing hippocampal neural progenitor cells from rat embryos (E16) was evaluated by performing an LC3-eGFP puncta formation assay. The neural progenitor cells into which an LC3-eGFP recombinant gene was introduced by electroporation were differentiated into neurons, treated with rapamycin and HN-1703 at concentrations of 0.1 μM and 0.5 μM for 12 hours, respectively, and the puncta of LC3-GFP were scanned with a confocal laser microscope (Zeiss, LSM800) to measure the fluorescence intensity of LC3-eGFP and the number of puncta, and the results were illustrated in FIG. 3. Specifically, FIG. 3A illustrates confocal scanning micrographs of LC3-eGFP puncta formation after treated primary cultured hippocampal neurons overexpressing an LC3-eGFP fusion protein with HN-1703, and quantifying the number and fluorescence intensity of LC3-eGFP puncta per cell, and FIG. 3B illustrates a result of LC3-II turnover analysis.

CO[C@H]1C[C@@H]2CC[C@@H](C)[C@@](O)(O2)C(=O)C(=O)N2CCCC[C@H]2C(=O)O[C@H]([C@H](C)C[C@@H]2CC[C@@H](O)[C@H](OC)C2)CC(=O)[C@H](C)/C=C(\C)[C@@H](O)[C@@H](OC)C(=O)[C@H](C)C[C@H](C)/C=C/C=C/C=C/1C [rapamycin, reference compound]
increase of the number of LC3-eGFP puncta compared to a control group: 49% | increase of the signal intensity of LC3-eGFP puncta compared to the control group: 15%
